Results taken from patent US12534444B2, “Treatment of cancer/inhibition of metastasis” (Celex Oncology Innovations Limited, priority 2010, dated 2026).

Legend:
Mat-LyLu cells = experiment: Cell viability assay (trypan blue); type: cell-based, rat
Method: Cells were seeded at a density of 5×10^4 cells/ml in 35 mm Falcon tissue culture dishes. After treatment with a given drug, the medium was removed and replaced with 800 μl of growth medium and 200 μl 0.4% trypan blue (Sigma, Dorset, UK) and incubated for 10 minutes in the incubator. The trypan blue was removed and the cells were washed once with 3 ml growth medium. For each treatment, cells from 30 random fields of view were counted under 100× magnification. The number of dead cells, stained blue, was counted in each field of view. The data were expressed as percentages of living cells out of the total number of cells in given fields of view. The percentages were averaged and differences between control and treatment were compared from at least three independent experiments.
(§1) With the exception of single cell adhesion tests, which are discussed in the following paragraph, experiments were carried out under either; • (i) normal normoxic conditions ([…], 5% carbon dioxide), or • (ii) following 24 hours hypoxic pre-treatment (2% O2, 5% CO2, 93% N2) continued during the assays.

MDA-MB-231 cells [1] = experiment: Cell growth (proliferation) assay (MTT); type: cell-based, human; details: Normoxia
Method: Cells were plated at 2×10^4 cells/ml in 24-well plates (Becton-Dickinson) and allowed to settle overnight. The cells were then treated for the required time of incubation (24 hours+), with medium changes every 24 hours. At the end of the treatment, the medium was removed, and this was followed by the colorimetric 3-[4,5-dimethylthiazol-2-yl]-2,5-diphenyltetrazolium bromide (MTT) assay (Grimes et al., 1995). Briefly, 0.1 ml MTT (5 mg/ml made up in the growth medium) and 0.4 ml growth medium was added in each well and the plate was incubated for 3-4 hours at 37° C. The medium was then removed from the chambers and replaced with 0.5 ml dimethyl sulfoxide (DMSO) and 0.063 ml glycine buffer (0.1 M glycine and 0.1 M NaCl; pH 10.5). Absorbance at 570 nm was determined 15 minutes after the addition of the glycine buffer. Results were calculated as means of nine repeats of each of the treatment vs. control spectrophotometer readings from individual invasion wells.
as §1

MDA-MB-231 cells [2] = experiment: Transverse migration assay (Transwell); type: cell-based, human
Method: This assay was used to represent the ability of cells to migrate as they intra/extravasate. […] The insert 602 has a migration filter membrane 605 in its base with 8 μm pores 606 extending therethrough.
Cells 607 were plated at a density of 2×10^4/ml on the filter membrane 605 and placed under a growth medium 608 containing 1% foetal bovine serum (FBS). A chemotactic gradient was created across the filter membrane 605 by placing growth medium 609 containing 10% FBS in the lower section 604 of the chamber.
Cells were allowed to migrate across the filter membrane 605 over a period of 24 hours, cells migrating and adhering to the underside of the filter membrane 605.
At the end of each assay, non-migrated cells were removed from the upper surface of the insert 602 with two different swabs
The number of cells migrating to the underside of the insert 602 was determined using crystal violet staining. Migrated cells were fixed for 15 minutes with ice-cold methanol. Then 0.5% crystal violet (in 25% methanol) was added for 15 minutes. The inserts were swabbed again and then washed in water and allowed to dry. Cells were then counted using twelve separate fields of view per insert (×200 magnification).
as §1

MDA-MB-231 cells [3] = experiment: Invasion assay (Matrigel Transwell); type: cell-based, human; details: for INVASIVENESS (pretreatment): 72 hours pretreatment
Source text: This assay is an extension of the transverse migration assay described above. To “invade”, the cells need both (i) to move as in the transverse migration assay and (ii) secrete a proteolytic enzyme to digest their surroundings. The ability of cells to invade neighbouring tissues by enzyme secretion was therefore assessed by using a layer of Matrigel™ (BD Biosciences) spread across the porous membrane of a Transwell® insert.
FIG. 7 is a schematic side sectional view of an invasion chamber 701 having a Transwell® insert 702 separating the chamber into upper 703 and lower 704 sections. The insert 702 has a migration filter membrane 705 in its base with 8 μm pores 706 extending therethrough. A layer 707 of Matrigel™ is shown coating the filter membrane 705.
Cells 708 were plated at a density of 2×10^4/ml onto the Matrigel™ layer 707 in 24-well plates (Becton-Dickinson) according to the manufacturers' instructions. 50 μl Matrigel™ was seeded at a 1:7 dilution (10 mg/ml stock) onto the inserts and left overnight. Prior to seeding with the cells the Matrigel™ was rehydrated using medium with no additions. This medium was removed prior to seeding the cells.
Cells were plated in a 1-5% FBS chemotactic gradient overnight (12 hours). The nutrient concentration in the medium 709 in the upper section 703 of the chamber was less than the concentration of nutrient in the medium 710 in the lower section 704 to induced movement of the cells through the Matrigel™ layer 707 and through the pores 706 to the underside of the filter membrane 705. At the end of each assay, non-invaded/non-migrated cells were removed from the upper surface of the insert 702 with two different swabs.
The number of cells invading to the underside of the insert 702 was determined using crystal violet staining. Invaded cells were fixed for 15 minutes with ice-cold methanol. Then 0.5% crystal violet (in 25% methanol) was added for 15 minutes. The inserts were swabbed again and then washed in water and allowed to dry. Cells were then counted using twelve separate fields of view per insert (×200 magnification). If the difference in the average number of cells invading the two control inserts was more than 40%, the experiment was rejected.
as §1

[4] = Hypoxia, 5 μM, listed as RILUZOLE

Nc1nc2ccc(OC(F)(F)F)cc2s1 [riluzole]
CELL VIABILITY (Mat-LyLu cells; Hypoxia, 1 μM): no effect | CELL VIABILITY (Mat-LyLu cells; Hypoxia, 10 μM, 24 h): no effect | CELL VIABILITY (Mat-LyLu cells; Hypoxia, 10 μM, 24 h, listed as RILUZOLE): cell death | CELL VIABILITY (Mat-LyLu cells; Hypoxia, 30 μM, 24 h): no effect | CELL VIABILITY (Mat-LyLu cells; Hypoxia, 30 μM, 24 h, listed as RILUZOLE): cell death | CELL VIABILITY (Mat-LyLu cells; Hypoxia, 100 μM, 24 h): no effect | CELL VIABILITY (Mat-LyLu cells; Hypoxia, 100 μM, 24 h, listed as RILUZOLE): cell death | CELL VIABILITY (Mat-LyLu cells; Normoxia, 10 μM, 24 h): no effect | CELL VIABILITY (Mat-LyLu cells; Normoxia, 30 μM, 24 h): no effect | CELL VIABILITY (Mat-LyLu cells; Normoxia, 100 μM, 24 h): no effect | PROLIFERATION (24 hours) (MDA-MB-231 cells [1]; 1 μM): no effect | PROLIFERATION (24 hours) (MDA-MB-231 cells [1]; 10 μM): no effect | PROLIFERATION (24 hours) (MDA-MB-231 cells [1]; 100 μM): reduced the proliferation of the cells in a statistically significant way | PROLIFERATION (24 hours) (MDA-MB-231 cells [1]; 100 μM, listed as RILUZOLE): tail off | growth (number of cells) (MDA-MB-231 cells [1]; 100 μM, 48 hours): reduced the proliferation of the cells in a statistically significant way | TRANSVERSE MIGRATION (MDA-MB-231 cells [2]; Hypoxia, 1 μM): reduced the transverse migration in a statistically significant way | TRANSVERSE MIGRATION (MDA-MB-231 cells [2]; Hypoxia, 1 μM, listed as RILUZOLE): decreased | TRANSVERSE MIGRATION (MDA-MB-231 cells [2]; Hypoxia, 10 μM): reduced the transverse migration in a statistically significant way | TRANSVERSE MIGRATION (MDA-MB-231 cells [2]; Hypoxia, 10 μM, listed as RILUZOLE): decreased | TRANSVERSE MIGRATION (MDA-MB-231 cells [2]; Hypoxia, 100 μM): reduced the transverse migration in a statistically significant way | TRANSVERSE MIGRATION (MDA-MB-231 cells [2]; Hypoxia, 100 μM, listed as RILUZOLE): decreased | TRANSVERSE MIGRATION (MDA-MB-231 cells [2]; Normoxia, 1 μM): reduced the transverse migration of the cells in a statistically significant way | TRANSVERSE MIGRATION (MDA-MB-231 cells [2]; Normoxia, 1 μM, listed as RILUZOLE): decreased | TRANSVERSE MIGRATION (MDA-MB-231 cells [2]; Normoxia, 10 μM): no effect | TRANSVERSE MIGRATION (MDA-MB-231 cells [2]; Normoxia, 100 μM): reduced the transverse migration of the cells in a statistically significant way | TRANSVERSE MIGRATION (MDA-MB-231 cells [2]; Normoxia, 100 μM, listed as RILUZOLE): decreased | INVASIVENESS (no pretreatment) (MDA-MB-231 cells [3]; Hypoxia, 1 μM): decreased | INVASIVENESS (pretreatment) (MDA-MB-231 cells [3]; Hypoxia, 5 μM): significantly inhibited invasiveness | INVASIVENESS (pretreatment) (MDA-MB-231 cells [3]; [4]): decreased | INVASIVENESS (no pretreatment) (MDA-MB-231 cells [3]; [4]): decreased | INVASIVENESS (no pretreatment) (MDA-MB-231 cells [3]; Hypoxia, 5 μM, listed as Riluzole): significantly inhibited invasiveness | INVASIVENESS (no pretreatment) (MDA-MB-231 cells [3]; Normoxia, 1 μM): decreased
